Assay results from patent US8859581B2, “Azaheterocyclic compounds as kinase inhibitors” (Merck Patent GmbH, priority 2005, dated 2014).
pIC50: −log10 of the molar value. Counter-ions that a name gives are not always drawn.

Biological target: T1, IGF1R (Homo sapiens, UniProt P08069)
T1 construct: endogenous in cells
Experiment: Inhibition of IGF-1R (IC50): IGF1-stimulated IGF1R autophosphorylation in human tumour cells, Capture-ELISA or LUMINEX
Format: cell-based
Settings: human tumour cells expressing IGF1R (for example MCF-7 or Calu-6); 45 min pre-treatment, IGF1 stimulation 5 min; read-out: IC50 (μM), IGF1R
Experimental: Cultivated human tumour cells which express the IGF1 receptor (IGF1R) (for example MCF-7 or Calu-6) are stimulated using human IGF1, the natural ligand of IGF1R. The stimulation induces autophosphorylation of tyrosine residues in the cytoplasmatic IGF1R domain, which triggers signal transduction cascades, which result in apoptosis inhibition and cell proliferation.
The amount of phosphorylated IGF1R is determined by a receptor-specific Capture-ELISA or an analogous LUMINEX assay. The IGF1R from cell lysates is bound to a 96-well ELISA plate or LUMINEX beads (“capturing”) by means of a specific antibody, and the tyrosine phosphorylation is detected using a biotin-labelled anti-phosphotyrosine antibody and a streptavidin peroxidase conjugate by a chemoluminescence method or by means of a fluorescence-labelled anti-phosphotyrosine antibody, In order to determine the activity of kinase inhibitors, cells are pre-treated with increasing concentrations of these compounds for 45 min and subsequently stimulated using IGF1 for 5 min. As internal control, the biological activity of the ligand IGF1 is checked and a concentration series of an IGF1R reference inhibitor measured.

T1 sequence (P08069 31-1367): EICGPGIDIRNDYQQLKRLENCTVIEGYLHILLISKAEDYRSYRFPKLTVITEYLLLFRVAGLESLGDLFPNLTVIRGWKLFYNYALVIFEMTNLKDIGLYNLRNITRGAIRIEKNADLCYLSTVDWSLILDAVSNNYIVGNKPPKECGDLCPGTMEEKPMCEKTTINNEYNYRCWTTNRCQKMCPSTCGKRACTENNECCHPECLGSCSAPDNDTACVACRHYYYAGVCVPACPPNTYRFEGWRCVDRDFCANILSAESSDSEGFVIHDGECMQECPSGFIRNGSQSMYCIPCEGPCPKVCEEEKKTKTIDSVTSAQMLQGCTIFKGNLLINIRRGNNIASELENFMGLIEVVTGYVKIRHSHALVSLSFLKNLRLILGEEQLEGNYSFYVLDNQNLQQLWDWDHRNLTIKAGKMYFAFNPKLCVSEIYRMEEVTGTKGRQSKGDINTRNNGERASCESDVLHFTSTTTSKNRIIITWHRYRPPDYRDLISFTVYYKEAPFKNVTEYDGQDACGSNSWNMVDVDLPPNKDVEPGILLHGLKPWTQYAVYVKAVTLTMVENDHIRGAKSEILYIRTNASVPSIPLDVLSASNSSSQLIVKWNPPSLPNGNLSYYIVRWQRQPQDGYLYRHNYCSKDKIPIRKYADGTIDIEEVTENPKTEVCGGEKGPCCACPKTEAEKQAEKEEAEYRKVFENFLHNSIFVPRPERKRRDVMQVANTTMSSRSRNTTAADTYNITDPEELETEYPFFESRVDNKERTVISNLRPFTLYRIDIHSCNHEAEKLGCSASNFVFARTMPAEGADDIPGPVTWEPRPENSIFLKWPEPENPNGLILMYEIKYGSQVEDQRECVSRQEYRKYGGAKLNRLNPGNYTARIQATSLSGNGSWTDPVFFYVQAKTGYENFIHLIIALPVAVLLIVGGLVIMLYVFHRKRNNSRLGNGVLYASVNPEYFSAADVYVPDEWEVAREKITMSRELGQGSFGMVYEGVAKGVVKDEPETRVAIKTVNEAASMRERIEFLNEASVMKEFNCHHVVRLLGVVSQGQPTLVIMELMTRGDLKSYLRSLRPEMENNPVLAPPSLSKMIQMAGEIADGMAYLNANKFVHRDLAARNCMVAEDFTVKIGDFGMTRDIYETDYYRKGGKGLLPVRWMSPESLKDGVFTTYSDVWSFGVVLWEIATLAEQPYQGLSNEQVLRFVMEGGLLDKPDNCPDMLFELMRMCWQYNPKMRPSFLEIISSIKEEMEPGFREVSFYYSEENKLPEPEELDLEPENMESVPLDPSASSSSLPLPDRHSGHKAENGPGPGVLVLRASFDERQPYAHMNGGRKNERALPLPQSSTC

In order of falling IC50:
1. NCCCCn1cc(-c2cccc(OCc3ccccc3)c2)c2c(N)nccc21 [Compound 68]  20 µM
2. COc1ccc(CNc2ccnc3[nH]c(-c4ccc(OC)cc4)cc23)cc1 [Compound 16]  11 µM
3. COc1cccc(-c2cc3c(NCc4ccccc4)ccnc3[nH]2)c1 [Compound 14]  10 µM
4. C#CCCCCNc1ccnc2[nH]c(-c3ccc(OC)cc3)cc12 [Compound 20]  9.9 µM
5. NCCCn1cc(-c2cccc(OCc3ccccc3)c2)c2c(N)nccc21 [Compound 71]  4.8 µM
6. COc1cc(-c2cc3c(NCCc4ccccn4)ccnc3[nH]2)cc(OC)c1OC [Compound 10]  1.4 µM
7. COc1ccc(Nc2ccnc3[nH]c(-c4cc(OC)c(OC)c(OC)c4)cc23)cc1N1CCN(C)CC1 [Compound 3]  0.99 µM
8. COc1cc(-c2cc3c(NCc4cccnc4)ccnc3[nH]2)cc(OC)c1OC [Compound 8]  0.93 µM
9. COc1cc(-c2cc3c(Nc4cccnc4)ccnc3[nH]2)cc(OC)c1OC [Compound 2]  0.76 µM
10. COc1cc(-c2cc3c(Nc4cnccn4)ccnc3[nH]2)cc(OC)c1OC [Compound 7]  0.76 µM

Same assay, conditions: human tumour cells expressing IGF1R (for example MCF-7 or Calu-6); 45 min pre-treatment, IGF1 stimulation 5 min; read-out: concentration at which the substance inhibits the kinase IGF-1R to the extent of 50%

`COc1cc(-c2cc3c(Nc4cnc5ccccc5c4)ccnc3[nH]2)cc(OC)c1OC` [Compound 1, quinolin-3-yl-[2-(3,4,5-trimethoxyphenyl)-1H-pyrrolo[2,3b]pyridin-4-yl]amine] showed a pIC50 of 4.85.

Test system: not given
Experiment: not given
Settings: not given

With `COc1cccc(-c2c[nH]c3ccnc(Nc4ccccn4)c23)c1` [Compound 53] the melting point was > 299 °C.
In the case of `COc1cccc(-c2c[nH]c3ccnc(NCc4cccnc4)c23)c1` [Compound 62], the melting point was 80 °C (dec.).
With `COc1cccc(-c2cn(CCNC(=O)c3ccccc3C(=O)O)c3cc(Cl)ncc23)c1` [Compound 78] the melting point was 160 °C (dec.).
In the case of `COc1cccc(-c2cn(CCN3C(=O)c4ccccc4C3=O)c3ccnc(Cl)c23)c1` (as salt: TFA) [Compound 51], the melting point was 130 °C (dec.).

First: c1ccc(CCCOc2cccc(-c3cc4c(Nc5ccccn5)ccnc4[nH]3)c2)cc1 (as salt: HCl) [Compound 25]
Second: c1ccc(CCCOc2cccc(-c3cc4c(Nc5cccnc5)ccnc4[nH]3)c2)cc1 (as salt: HCl) [Compound 22]
The melting point of the first is higher: 175 to 176 °C for the first, 166 to 167.5 °C for the second.

First: COc1cc(-c2cc3c(Nc4cnccn4)ccnc3[nH]2)cc(OC)c1OC (as salt: hydrochloride) (hydrate or solvate) [Compound 7]
Second: COc1cc(-c2cc3c(Nc4cccnc4)ccnc3[nH]2)cc(OC)c1OC (as salt: hydrochloride) (hydrate or solvate) [Compound 2]
The melting point of the first is higher: 292 to 294 °C for the first, 202 to 203 °C for the second.

First: COc1cc(-c2cc3c(Nc4cnc5ccccc5c4)ccnc3[nH]2)cc(OC)c1OC (as salt: hydrochloride) [Compound 1, quinolin-3-yl-[2-(3,4,5-trimethoxyphenyl)-1H-pyrrolo[2,3b]pyridin-4-yl]amine]
Second: COc1cc(-c2cc3c(Nc4cccc(C#N)c4)ccnc3[nH]2)cc(OC)c1OC (as salt: hydrochloride) (hydrate or solvate) [Compound 11]
The melting point of the first is lower: 227 to 228.5 °C for the first, 291 to 292.5 °C for the second.

First: COc1cc(-c2cc3c(NCCc4ccccn4)ccnc3[nH]2)cc(OC)c1OC (as salt: hydrochloride) (hydrate or solvate) [Compound 10]
Second: COc1cc(-c2cc3c(NCCc4cccnc4)ccnc3[nH]2)cc(OC)c1OC (as salt: hydrochloride) (hydrate or solvate) [Compound 9]
The melting point of the first is higher: 153 to 154 °C for the first, 105.5 to 106.5 °C for the second.

First: c1ccc(CCCOc2cccc(-c3cc4cccnc4[nH]3)c2)cc1 [Compound 30]
Second: Fc1cccc(Nc2ccnc3[nH]c(-c4cccc(OCCCc5ccccc5)c4)cc23)c1 (as salt: HCl) [Compound 24]
The melting point of the first is lower: 128 to 129 °C for the first, 210 to 211.5 °C for the second.

Compared with `Clc1nccc2[nH]cc(-c3cccc(OCc4ccccc4)c3)c12` [Compound 56], `Clc1cc2[nH]cc(-c3cccc(OCc4ccccc4)c3)c2cn1` [Compound 83] is higher in melting point: 156 to 158 °C for the first, 225 to 228.5 °C for the second.

Compared with `COc1cccc(-c2cn(CCCNC(=O)c3ccccc3C(=O)O)c3cc(Cl)ncc23)c1` [Compound 79], `COc1cccc(-c2cn(CCCCCNC(=O)c3ccccc3C(=O)O)c3cc(Cl)ncc23)c1` [Compound 82] is lower in melting point: 100 to 101 °C for the first, 97 to 99 °C for the second.

First: COc1cccc(-c2c[nH]c3ccnc(Cl)c23)c1 [Compound 46]
Second: COc1cccc(-c2c[nH]c3cc(Cl)ncc23)c1 [Compound 77]
The melting point of the first is lower: 159.5 to 160 °C for the first, 211 to 212 °C for the second.

Compared with `COc1ccc(CNc2ccnc3[nH]c(-c4ccc(OC)cc4)cc23)cc1` (as salt: hydrochloride) [Compound 16], `COc1ccc(CNc2ccnc3[nH]c(-c4cccc(OCc5ccccc5)c4)cc23)cc1` [Compound 32] is higher in melting point: 196 to 197 °C for the first, 218 to 219 °C for the second.

Compared with `COc1cccc(-c2cn(CCCCN3C(=O)c4ccccc4C3=O)c3ccnc(N)c23)c1` (as salt: TFA) [Compound 55], `COc1cccc(-c2cn(CCCN3C(=O)c4ccccc4C3=O)c3ccnc(Cl)c23)c1` (as salt: TFA) [Compound 49] is lower in melting point: 188 to 189 °C for the first, 129 to 130 °C for the second.

First: COc1cccc(-c2cn(C3CC(CNC(=O)c4ccccc4C(=O)O)C3)c3cc(Cl)ncc23)c1 (stereo not shown) [Compound 80]
Second: COc1cccc(-c2cn(CCCNC(=O)c3ccccc3C(=O)O)c3ccnc(Cl)c23)c1 [Compound 50]
The melting point of the first is higher: 177 to 180 °C for the first, 122 to 124 °C for the second.

First: C=CCNc1ccnc2[nH]c(-c3ccc(OC)cc3)cc12 (as salt: TFA) [Compound 35]
Second: C#CCCCCNc1ccnc2[nH]c(-c3ccc(OC)cc3)cc12 (as salt: hydrochloride) (hydrate or solvate) [Compound 20]
The melting point of the first is higher: 189.5 to 190 °C for the first, 118 to 120 °C for the second.

First: COc1cc(-c2cc3c(NCc4cccnc4)ccnc3[nH]2)cc(OC)c1OC (as salt: hydrochloride) (hydrate or solvate) [Compound 8]
Second: COc1cc(-c2cc3c(Nc4ccc(F)c(Cl)c4)ccnc3[nH]2)cc(OC)c1OC (as salt: hydrochloride) [Compound 5]
The melting point of the first is lower: 181.5 to 183 °C for the first, 267.5 to 269 °C for the second.

Compared with `COc1cccc(-c2c([Si](C)(C)C)n(CCCCN3C(=O)c4ccccc4C3=O)c3ccnc(Cl)c23)c1` (as salt: TFA), `COc1cccc(-c2c([Si](C)(C)C)[nH]c3ccnc(Cl)c23)c1` is lower in melting point: 183 to 184 °C for the first, 137 °C for the second.

First: COc1ccc(CNc2nccc3[nH]cc(-c4cccc(OC)c4)c23)cc1 (as salt: HCl) [Compound 42]
Second: COc1cccc(-c2c[nH]c3ccnc(Nc4cccnc4)c23)c1 [Compound 63]
The melting point of the first is higher: 226 to 227 °C for the first, 177 to 178 °C for the second.

Compared with `COc1cccc(-c2cn(CCCCN)c3ccnc(N)c23)c1` (as salt: TFA) [Compound 47], `COc1cccc(-c2cc3c(NCCCN(C)C)ccnc3[nH]2)c1` (as salt: hydrochloride) (hydrate or solvate) [Compound 15] is higher in melting point: 50 °C for the first, 257 to 258 °C for the second.

Compared with `c1ccc(COc2cccc(-c3cc4cnccc4[nH]3)c2)cc1` [Compound 70], `COc1ccc(CNc2nccc3[nH]c(-c4cccc(OCc5ccccc5)c4)cc23)cc1` (as salt: TFA) [Compound 48] is lower in melting point: 168 to 170 °C for the first, 130 to 131 °C for the second.

First: COc1ccc(-c2cc3c(NC(=O)Nc4ccc(Cl)c(C(F)(F)F)c4)ccnc3[nH]2)cc1 (as salt: TFA) [Compound 34]
Second: COc1cccc(-c2cc3c(Nc4ccc(F)c(Cl)c4)ccnc3[nH]2)c1 (as salt: hydrochloride) [Compound 6]
The melting point of the first is lower: 141 to 142 °C for the first, 164 to 165 °C for the second.

Compared with `COc1ccc(CNc2ccn(CCCCN)c3nc(-c4ccc(OC)cc4)cc2-3)cc1` (as salt: TFA) [Compound 36], `COc1ccc(CNc2ccnc3[nH]c(-c4cccc(OCCCc5ccccc5)c4)cc23)cc1` [Compound 23] is higher in melting point: 127 to 127.5 °C for the first, 164 to 165 °C for the second.

First: COc1ccc(-c2cc3cnccc3[nH]2)cc1 [Compound 75]
Second: COc1cccc(-c2cc3c(NCc4ccccc4)ccnc3[nH]2)c1 (as salt: hydrochloride) [Compound 14]
The melting point of the first is higher: 205 to 207 °C for the first, 117 to 119 °C for the second.

First: COc1ccc(Nc2ccnc3[nH]c(-c4cc(OC)c(OC)c(OC)c4)cc23)cc1N1CCN(C)CC1 (as salt: hydrochloride) (hydrate or solvate) [Compound 3]
Second: COc1cccc(-c2cc3c(NCCCn4ccnc4)ccnc3[nH]2)c1 (as salt: hydrochloride) [Compound 12]
The melting point of the first is lower: 78 to 80 °C for the first, 161 to 162 °C for the second.

First: COc1ccc(-c2cc3c(N(C(=O)c4ccc(F)c(Cl)c4)C(=O)c4ccc(F)c(Cl)c4)ccnc3[nH]2)cc1 (as salt: TFA) [Compound 33]
Second: Fc1ccccc1Nc1ccnc2[nH]c(-c3cccc(OCCCc4ccccc4)c3)cc12 (as salt: HCl) [Compound 26]
The melting point of the first is lower: 142 to 144 °C for the first, 155 to 156 °C for the second.

First: COc1cccc(-c2c([Si](C)(C)C)[nH]c3cc(Cl)ncc23)c1
Second: COc1cccc(-c2cc3c(NCCn4cccc4)ccnc3[nH]2)c1 (as salt: hydrochloride) [Compound 17]
The melting point of the first is lower: 179 to 179.5 °C for the first, 218 to 219 °C for the second.
